Test results taken from US5432159A, “N-(α-substituted-pyridinyl)carbonyl dipeptide antihypertensive agents” (Lacer S.A., priority 1991, dated 1995).

Legend:
[1] = tested on: spontaneously hypertensive rats; assay: Antihypertensive activity in spontaneously hypertensive rats (SHR), tail cuff systolic blood pressure; assay type: in vivo; settings: for average reduction of the SBP: 1 h after administration, significantly different from control
Procedure: In this recognized model of hypertension, male spontaneously hypertensive rats (315 to 376 g) with systolic blood pressures (SBP) >160 mm Hg were used. Systolic blood pressures were recorded on conscious animals by a tail cuff method (FS-40 blood pressure/pulse monitor). Prior to all measurements, the rats were placed in a restraining cylinder. […] The pressures were monitored again 1, 2, 3, 4 and 24 h after administration of the test compounds. A control group (n=18) was included for comparison purposes.

[2] = tested on: Angiotensin I-Induced Contractions in Guinea-Pig Ileum; assay: Inhibition of Angiotensin I-induced contractions in guinea-pig ileum; settings: final bath concentration 10 ng/ml; Angiotensin I 100 ng/ml; compound added 2 min before agonist; average of ilea from 5 guinea-pigs
Procedure: Segments of 1.5 cm of freshly excised and washed terminal ileum were suspended in 25-ml tissue baths containing Tyrode's solution at 31° C. and bubbled with 95% O2 -5% CO2. With an initial load of 1.0 g, the resting tension after equilibration and the responses to Angiotensin I or Angiotensin II (both at 100 ng/ml) were monitored and recorded by means of an Ealing isometric transducer and a Lectromed polygraph. Several compounds of this invention were tested in this system, adding them to the bath 2 min. before the respective agonist.
At final bath concentrations of 10 ng/ml, the inhibitory effect of the tested compounds regarding the Angiotensin I-induced contractions was determined. The obtained results are given in Table I. All % inhibitions given therein are the average of results obtained with segments of ilea from 5 guinea-pigs. At final bath concentrations of 1 μg/ml none of the tested compounds produced an appreciable modification of the contractions induced by Angiotensin II.

[3] = oral 30 mg/kg, after 2, 3, 4 and 24 h, Duncan-Kramer test, p<0.05

Compound	average reduction of the SBP ([1]; oral 30 mg/kg) [mm Hg]	% Inhibition of Angiotensin I-induced contractions [2] [%]	antihypertensive effect ([1]; oral 30 mg/kg, overall)	also measured
C[C@H](CS)C(=O)N1CCC[C@H]1C(=O)O [Captopril, D-3-mercapto-2-methylpropanoyl-L-proline, reference compound]	17.2±8.49	28.9		SBP reduction versus control ([1]; oral 30 mg/kg, after 24 h): inactive
CCOC(=O)c1cccc(C(=O)N[C@@H](C)C(=O)N2CCC[C@H]2C(=O)OCC)n1 [Compound No. 8, N-[(2-Ethoxycarbonyl-6-pyridinyl)carbonyl]-L-alanyl-L-proline ethyl ester]	32.6±7.49		significant antihypertensive effect	SBP reduction versus control [1, 3]: significantly different from the control; antihypertensive effect ([1]; oral doses of 7.5 and 15 mg/kg): Antihypertensive effects were also observed
CCOC(=O)[C@@H]1CCCN1C(=O)[C@H](C)NC(=O)c1ccc[nH]c1=O [Compound No. 21, N-[(1,2-Dihydro-2-oxo-3-pyridinyl)carbonyl]-L-alanyl-L-prolineethyl ester]		30.7	significant antihypertensive effect	SBP reduction, time course ([1]; oral 30 mg/kg, monitored 1, 2, 3, 4 and 24 h): significant reduction only after 2 h; SBP reduction ([1]; oral 45 mg/kg, after 2, 3, 4 and 24 h): significant
C[C@H](NC(=O)c1cccc(Cl)n1)C(=O)N1CCC[C@H]1C(=O)O [Compound No. 24, N-[(6-Chloro-2-pyridinyl)carbonyl]-L-atanyl-L-proline]		20.6		
C[C@H](NC(=O)c1cc[nH]c(=S)c1)C(=O)N1CCC[C@H]1C(=O)O [Compound No. 27, N-[(1,2-dihydro-2-thioxo-4-pyridinyl)carbonyl]-L-alanyl-L-proline]	28.4±3.16	18.1	significant antihypertensive effect	SBP reduction versus control [1, 3]: significantly different from the control; antihypertensive effect ([1]; oral doses of 7.5 and 15 mg/kg): Antihypertensive effects were also observed
C[C@H](NC(=O)c1ccc(=S)[nH]c1)C(=O)N1CCC[C@H]1C(=O)O [Compound No. 29, N-[(1,6-dihydro-6-thioxo-3-pyridinyl)carbonyl]-L-alanyl-L-proline]		16.2		
C[C@H](NC(=O)c1ccc(=O)[nH]c1)C(=O)N1CCC[C@H]1C(=O)O [Compound No. 35, N-[(1,6-dihydro-6-oxo-3-pyridinyl)carbonyl]-L-alanyl-L-proline]		16.0		
